Results taken from patent publication US7511119B2, “PRAME peptide analogues” (MannKind Corporation, priority 2005, dated 2009).
Square brackets hold non-standard residues; d marks the D form. Ends that are not written are not given here. Peptide text beside a SMILES is read from it. Phe(4-NO2) = N[C@@H](Cc1ccc([N+](=O)[O-])cc1)C(=O)O; Bta = N[C@@H](Cc1csc2ccccc12)C(=O)O; Phg = N[C@H](C(=O)O)c1ccccc1; Nva = CCC[C@H](N)C(=O)O

Columns and labels:
HLA-A*0201 = HLA-A*0201 (Homo sapiens, UniProt P04439, D140Y/D185E/D98H/E176V/E277Q/G131W/G231S/I119V/I121R/I166T/I218V/L300P/L318F/N151K/N90K/P208A/P217A/Q86G/Q94H/R138H/R169H/T345S); assay: Peptide binding using T2 cells; settings: half maximal binding of wild-type peptide relative to analog;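 further: Read-out is peptide-induced stabilization of HLA-A*0201 on the cell surface, reflecting mainly Kon at limiting peptide levels and both Kon and Koff at saturating levels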
Text: Thus, at limiting concentrations of peptide, it is a measurement of Kon mostly and at saturation levels of peptide it is a measurement of both Kon and Koff.
Thus, at limiting concentrations of peptide, this is a measurement of Kon mostly and at saturation levels of peptide that is a measurement of both Kon and Koff.

[1] = test system: T cell lines against natural epitope SSX-241-49; assay: Cross-reactivity and functional avidity: IFN-gamma production by T cell lines raised against natural SSX-2 41-49; format: cell-based, HHD transgenic mice; settings: T cells raised to native peptide tested on analogs; footnote * and unit not given;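 further: analogs presented ex vivo by competent APCs to T cells specific for the non-mutated epitope, scored by lowest activating concentration, peak cytokine effect and concentration at that peak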

| Compound | Relative affinity (1/RA) (HLA-A*0201) | Cross-reactivity and fct avidity (native to analogs)* [1] |
| --- | --- | --- |
| CC[C@H](C)[C@H](NC(=O)[C@H](CCCCN)NC(=O)[C@H](CCC(=O)O)NC(=O)[C@H](CO)NC(=O)[C@H](C)NC(=O)[C@@H](N)Cc1csc2ccccc12)C(=O)N[C@@H](Cc1ccccc1)C(=O)N[C@@H](Cc1ccc(O)cc1)C(=O)N[C@H](C(=O)O)C(C)C [SSX2 41-49 (K41(b-(3-benzothienyl)Ala))] (H-[Bta]ASEKIFYV-OH) | 0.6 | 10 |
| CC[C@H](C)[C@H](NC(=O)[C@H](CCCCN)NC(=O)[C@H](CCC(=O)O)NC(=O)[C@H](CO)NC(=O)[C@H](C)NC(=O)[C@@H](N)Cc1ccc([N+](=O)[O-])cc1)C(=O)N[C@@H](Cc1ccccc1)C(=O)N[C@@H](Cc1ccc(O)cc1)C(=O)N[C@H](C(=O)O)C(C)C [SSX2 41-49 (K41(Phe-4NO2))] (H-[Phe(4-NO2)]ASEKIFYV-OH) | 1.1 | 3 |
| CC[C@H](C)[C@H](NC(=O)[C@H](CCCCN)NC(=O)[C@H](CCC(=O)O)NC(=O)[C@H](CO)NC(=O)[C@H](C)NC(=O)[C@@H](N)Cc1ccc(OC)cc1)C(=O)N[C@@H](Cc1ccccc1)C(=O)N[C@@H](Cc1ccc(O)cc1)C(=O)N[C@H](C(=O)O)C(C)C [SSX2 41-49 (K41(O-methyl Tyr))] (H-Y(Me)ASEKIFYV-OH) | 0.8 | 3 |
| CCC[C@H](NC(=O)[C@H](CO)NC(=O)[C@@H](NC(=O)[C@@H](N)Cc1ccccc1)C(C)C)C(=O)N[C@@H](CCCCN)C(=O)N[C@H](C(=O)N[C@@H](Cc1ccccc1)C(=O)N[C@@H](Cc1ccc(O)cc1)C(=O)N[C@H](C(=O)O)C(C)C)[C@@H](C)CC [SSX2 41-49 (K41F, A42V, E44Nva), FVS(Nva)KIFYV] (H-FVS[Nva]KIFYV-OH) | 3.9 | 3 |
| CCC[C@H](NC(=O)[C@H](CCCCN)NC(=O)[C@H](CCC(=O)O)NC(=O)[C@H](CO)NC(=O)[C@@H](NC(=O)[C@@H](N)Cc1ccccc1)C(C)C)C(=O)N[C@@H](Cc1ccccc1)C(=O)N[C@@H](Cc1ccc(O)cc1)C(=O)N[C@H](C(=O)O)C(C)C [SSX2 41-49 (K41F, A42V, I46Nva), FVSEK(Nva)FYV] (H-FVSEK[Nva]FYV-OH) | 2.4 | 1 |
| FVSEKLFSA | 2.4 | >10 |
| CC[C@H](C)[C@H](NC(=O)[C@H](CCCCN)NC(=O)[C@H](CCC(=O)O)NC(=O)[C@H](CO)NC(=O)[C@H](C)NC(=O)[C@@H](N)c1ccccc1)C(=O)N[C@@H](Cc1ccccc1)C(=O)N[C@@H](Cc1ccc(O)cc1)C(=O)N[C@H](C(=O)O)C(C)C [SSX2 41-49 (K41(Phg))] (H-[Phg]ASEKIFYV-OH) | 2.5 | 0.1 |
| KMSEKIFYV [SSX2 41-49 (A42M)] | 1.7 | 0.1 |
| KISEKIFYV [SSX2 41-49 (A42I)] | 1.7 | 3 |
| KLSEKIFYI [SSX2 41-49 (A42L, V49I)] | 2.6 | 0.03 |
| WVSEKIFYV-OH [SSX2 41-49 (K41W, A42V)] | 3.0 | 1 |
| WMSEKIFYV-OH [SSX2 41-49 (K41W, A42M)] | 2.9 | 1 |
| CC[C@H](C)[C@H](NC(=O)[C@H](CCCCN)NC(=O)[C@H](CCC(=O)O)NC(=O)[C@H](CO)NC(=O)[C@@H](NC(=O)[C@@H](N)Cc1ccccc1)C(C)C)C(=O)N[C@@H](Cc1ccccc1)C(=O)N[C@H](C(=O)N[C@H](C(=O)O)C(C)C)c1ccccc1 [SSX2 41-49 (K41F, A42V, Y48Phg), FVSEKIF(Phg)V] (H-FVSEKIF[Phg]V-OH) | 2.5 | >10 |
| FVSEKLFYV [SSX2 41-49 (K41F, A42V, I46L)] | 1.9 | 3 |
| KASEKIFYI-OH [SSX2 41-49(V49I)] | 1.0 | 10 |
| FVSQKIFYV [SSX2 41-49 (K41F, A42V, E44Q)] | 0.4 | 10 |
| FVSEKIFSV [SSX2 41-49 (K41F, A42V, Y48S)] | 3.9 | >10 |
| WLSEKIFYV-OH [SSX2 41-49 (K41W, A42L)] | 3.3 | 0.3 |
| FVSEKIFYM [SSX2 41-49 (K41F, A42V, V49M)] | 0.8 | >10 |
| YLSEKIFYV-OH [SSX2 41-49 (K41Y, A42L)] | 1.2 |  |
| FISEKIFYV [SSX2 41-49 (K41F, A42I)] | 2.7 | 0.3 |
| YMSEKIFYV-OH [SSX2 41-49 (K41Y, A42M)] | 0.6 | 3 |
